Measurements from PubChem BioAssay (NCI).
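These data come from cells grown in 96-well plates and exposed to compound for 48 hours at five concentrations. GI50: concentration for 50% inhibition of growth. Definition used: TGI = concentration required for complete inhibition of growth.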

What was measured:
Test in all cases: NCI anticancer screen, dose series, 48 h
SN12C renal = tested on: SN12C renal
RPMI-8226 leukemia = tested on: RPMI-8226 leukemia
UACC-257 melanoma = tested on: UACC-257 melanoma
SF-268 CNS = tested on: SF-268 CNS
NCI-H522 lung = tested on: NCI-H522 lung
SNB-75 CNS = tested on: SNB-75 CNS
M14 melanoma = tested on: M14 melanoma
OVCAR-3 ovarian = tested on: OVCAR-3 ovarian
RXF 393 renal = tested on: RXF 393 renal
SW-620 colon = tested on: SW-620 colon
BT-549 breast = tested on: BT-549 breast
UACC-62 melanoma = tested on: UACC-62 melanoma
IGROV1 ovarian = tested on: IGROV1 ovarian
NCI-H460 lung = tested on: NCI-H460 lung
CAKI-1 renal = tested on: CAKI-1 renal
HCC-2998 colon = tested on: HCC-2998 colon
MALME-3M melanoma = tested on: MALME-3M melanoma
SK-MEL-2 melanoma = tested on: SK-MEL-2 melanoma
MDA-MB-435 = tested on: MDA-MB-435
MCF7 breast = tested on: MCF7 breast
OVCAR-5 ovarian = tested on: OVCAR-5 ovarian
MOLT-4 leukemia = tested on: MOLT-4 leukemia
PC-3 prostate = tested on: PC-3 prostate
SR leukemia = tested on: SR leukemia
U251 CNS = tested on: U251 CNS
HCT-15 colon = tested on: HCT-15 colon
A498 renal = tested on: A498 renal
SK-MEL-28 melanoma = tested on: SK-MEL-28 melanoma
NCI-H226 lung = tested on: NCI-H226 lung
NCI/ADR-RES ovarian = tested on: NCI/ADR-RES ovarian
MDA-MB-231 breast = tested on: MDA-MB-231 breast
UO-31 renal = tested on: UO-31 renal
786-0 renal = tested on: 786-0 renal
OVCAR-8 ovarian = tested on: OVCAR-8 ovarian
SK-OV-3 ovarian = tested on: SK-OV-3 ovarian
K-562 leukemia = tested on: K-562 leukemia
LOX IMVI melanoma = tested on: LOX IMVI melanoma
HS 578T breast = tested on: HS 578T breast
COLO 205 colon = tested on: COLO 205 colon
A549 NSCLC = tested on: A549 NSCLC
NCI-H23 lung = tested on: NCI-H23 lung
T-47D breast = tested on: T-47D breast
CCRF-CEM leukemia = tested on: CCRF-CEM leukemia
SK-MEL-5 melanoma = tested on: SK-MEL-5 melanoma
HT29 colon = tested on: HT29 colon
HCT-116 colon = tested on: HCT-116 colon
OVCAR-4 ovarian = tested on: OVCAR-4 ovarian
KM12 colon = tested on: KM12 colon
MDA-MB-468 breast = tested on: MDA-MB-468 breast
EKVX NSCLC = tested on: EKVX NSCLC
HOP-62 NSCLC = tested on: HOP-62 NSCLC
SF-539 CNS = tested on: SF-539 CNS
DU-145 prostate = tested on: DU-145 prostate
TK-10 renal = tested on: TK-10 renal
SNB-19 CNS = tested on: SNB-19 CNS
SF-295 CNS = tested on: SF-295 CNS
HL-60(TB) leukemia = tested on: HL-60(TB) leukemia
HOP-92 NSCLC = tested on: HOP-92 NSCLC
ACHN renal = tested on: ACHN renal

SMILES: O=C(COc1ccc(NC(=O)Nc2ccc(Cl)c(Cl)c2)cc1)N=Nc1c(O)[nH]c2ccccc12
- GI50 (SN12C renal): 1.77 µM
- TGI (SN12C renal): 3.77 µM
- GI50 (RPMI-8226 leukemia): 5.32 µM
- TGI (RPMI-8226 leukemia): 29.8 µM
- GI50 (UACC-257 melanoma): 2.96 µM
- TGI (UACC-257 melanoma): 10 µM
- GI50 (SF-268 CNS): 2.44 µM
- TGI (SF-268 CNS): 6.14 µM
- GI50 (NCI-H522 lung): 2.49 µM
- TGI (NCI-H522 lung): 8.06 µM
- GI50 (SNB-75 CNS): 1.65 µM
- TGI (SNB-75 CNS): 5.09 µM
- GI50 (M14 melanoma): 2.63 µM
- TGI (M14 melanoma): 8.58 µM
- GI50 (OVCAR-3 ovarian): 2.02 µM
- TGI (OVCAR-3 ovarian): 4.67 µM
- GI50 (RXF 393 renal): 2 µM
- TGI (RXF 393 renal): 7.65 µM
- GI50 (SW-620 colon): 1.72 µM
- TGI (SW-620 colon): 3.79 µM
- GI50 (BT-549 breast): 13.7 µM
- TGI (BT-549 breast): 29.7 µM
- GI50 (UACC-62 melanoma): 3.55 µM
- TGI (UACC-62 melanoma): 13.8 µM
- GI50 (IGROV1 ovarian): 4.59 µM
- TGI (IGROV1 ovarian): 17.4 µM
- GI50 (NCI-H460 lung): 1.84 µM
- TGI (NCI-H460 lung): 3.99 µM
- GI50 (CAKI-1 renal): 4.69 µM
- TGI (CAKI-1 renal): 17.1 µM
- GI50 (HCC-2998 colon): 5.31 µM
- TGI (HCC-2998 colon): 18.1 µM
- GI50 (MALME-3M melanoma): 1.83 µM
- TGI (MALME-3M melanoma): 3.76 µM
- GI50 (SK-MEL-2 melanoma): 12.1 µM
- TGI (SK-MEL-2 melanoma): 25.9 µM
- GI50 (MDA-MB-435): 2.05 µM
- TGI (MDA-MB-435): 4.8 µM
- GI50 (MCF7 breast): 2.49 µM
- TGI (MCF7 breast): 7.48 µM
- GI50 (OVCAR-5 ovarian): 3.39 µM
- TGI (OVCAR-5 ovarian): 13.7 µM
- GI50 (MOLT-4 leukemia): 3.67 µM
- TGI (MOLT-4 leukemia): 19.8 µM
- GI50 (PC-3 prostate): 2.01 µM
- TGI (PC-3 prostate): 6.24 µM
- GI50 (SR leukemia): 4.65 µM
- TGI (SR leukemia): 32.9 µM
- GI50 (U251 CNS): 1.77 µM
- TGI (U251 CNS): 3.32 µM
- GI50 (HCT-15 colon): 46.8 µM
- TGI (HCT-15 colon): > 100 µM
- GI50 (A498 renal): 10.5 µM
- TGI (A498 renal): 23.2 µM
- GI50 (SK-MEL-28 melanoma): 2.12 µM
- TGI (SK-MEL-28 melanoma): 5.07 µM
- GI50 (NCI-H226 lung): 2.76 µM
- TGI (NCI-H226 lung): 10.8 µM
- GI50 (NCI/ADR-RES ovarian): > 100 µM
- TGI (NCI/ADR-RES ovarian): > 100 µM
- GI50 (MDA-MB-231 breast): 1.96 µM
- TGI (MDA-MB-231 breast): 4.7 µM
- GI50 (UO-31 renal): 39 µM
- TGI (UO-31 renal): > 100 µM
- GI50 (786-0 renal): 2.69 µM
- TGI (786-0 renal): 6.27 µM
- GI50 (OVCAR-8 ovarian): 2.1 µM
- TGI (OVCAR-8 ovarian): 4.84 µM
- GI50 (SK-OV-3 ovarian): 3.28 µM
- TGI (SK-OV-3 ovarian): 11.8 µM
- GI50 (K-562 leukemia): 3.46 µM
- TGI (K-562 leukemia): 17.9 µM
- GI50 (LOX IMVI melanoma): 2.79 µM
- TGI (LOX IMVI melanoma): 9.02 µM
- GI50 (HS 578T breast): 3.06 µM
- TGI (HS 578T breast): 12 µM
- GI50 (COLO 205 colon): 2.19 µM
- TGI (COLO 205 colon): 5.18 µM
- GI50 (A549 NSCLC): 2.97 µM
- TGI (A549 NSCLC): 8.33 µM
- GI50 (NCI-H23 lung): 2.91 µM
- TGI (NCI-H23 lung): 8.31 µM
- GI50 (T-47D breast): 10.6 µM
- TGI (T-47D breast): 25.2 µM
- GI50 (CCRF-CEM leukemia): 3.97 µM
- TGI (CCRF-CEM leukemia): 20.8 µM
- GI50 (SK-MEL-5 melanoma): 4.73 µM
- TGI (SK-MEL-5 melanoma): 16.7 µM
- GI50 (HT29 colon): 1.97 µM
- TGI (HT29 colon): 4 µM
- GI50 (HCT-116 colon): 3.22 µM
- TGI (HCT-116 colon): 10.3 µM
- GI50 (OVCAR-4 ovarian): 2.47 µM
- TGI (OVCAR-4 ovarian): 8.09 µM
- GI50 (KM12 colon): 2.87 µM
- TGI (KM12 colon): 11.2 µM
- GI50 (MDA-MB-468 breast): 1.8 µM
- TGI (MDA-MB-468 breast): 3.8 µM
- GI50 (EKVX NSCLC): 6.11 µM
- TGI (EKVX NSCLC): 28 µM
- GI50 (HOP-62 NSCLC): 2.34 µM
- TGI (HOP-62 NSCLC): 5.82 µM
- GI50 (SF-539 CNS): 1.97 µM
- TGI (SF-539 CNS): 4.38 µM
- GI50 (DU-145 prostate): 3.29 µM
- TGI (DU-145 prostate): 18.7 µM
- GI50 (TK-10 renal): 10.6 µM
- TGI (TK-10 renal): 28.6 µM
- GI50 (SNB-19 CNS): 2.89 µM
- TGI (SNB-19 CNS): 10.5 µM
- GI50 (SF-295 CNS): 2.23 µM
- TGI (SF-295 CNS): 5.45 µM
- GI50 (HL-60(TB) leukemia): 20.8 µM
- TGI (HL-60(TB) leukemia): 71.6 µM
- GI50 (HOP-92 NSCLC): 2.58 µM
- TGI (HOP-92 NSCLC): 9.45 µM
- GI50 (ACHN renal): 7.78 µM
- TGI (ACHN renal): 36.2 µM
